Measurements taken from patent publication US7763663B2, “Polysaccharide-containing block copolymer particles and uses thereof” (priority 2001, dated 2010).

Test system: ear swelling
Details: conventional form, 200 mg dose (highest dosage used), topical, after 6 hours of exposure, croton oil
Excerpt: Croton oil was applied to the left and right ears of five animals to cause inflammation. Two hours later, a nanoparticle preparation of Celebrex or conventional form of Celebrex® was applied topically to the left or right ear.

## Cc1ccc(-c2cc(C(F)(F)F)nn2-c2ccc(S(N)(=O)=O)cc2)cc1 [Celebrex® delivered in conventional form]
  reduction in ear swelling: 60%
